From patent US8865672B2, “Prevention of tissue ischemia and related methods” (The United States of America, as represented by the …, priority 2006, dated 2014)
Peptide text beside a SMILES is read from it.

What was measured:
NO/cGMP signaling = test: cGMP signaling (NO-stimulated cGMP, immunoassay); type: cell-based, human; conditions: concentration for 50% inhibition of effect
How it was run: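 Endothelial or HT-1080 cells (10^4 cells/well) serum-weaned over 48 h, then treated with NO donors and other agents in serum-free medium + 0.1% BSA. Intracellular cGMP measured by enzyme immunoassay; washed human platelets were also treated ± NO in Tyrode's buffer for cGMP determination.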

[1] = target: T1, CD47 IgV domain / SIRP IgV domain (Homo sapiens, UniProt Q08722); test: ELISA of SIRP IgV domain binding to CD47 IgV domain; conditions: Fc-SIRP IgV on protein A plates, alkaline phosphatase-CD47 IgV
T1 construct: alkaline phosphatase fusions of the CD47 IgV domain
Text: SIRP-alpha (Signal Inhibitory Regulatory Protein Alpha; SIRPα) and the closely related SIRP-gamma (SIRPγ formerly called SIRP-beta) are two ligands of CD47. They consist of an N-terminal IgV set domain and variable numbers of 1 g domains followed by a transmembrane segment and variously spliced cytoplasmic tails, some of which contain phosphorylatable tyrosines that constitute docking sites for tyrosine phosphatases such as SHP-1 and SHP-2. The IgV domain of SIRP-alpha and -gamma are high affinity ligands of CD47 with species specificity thought to allow self vs. non-self discrimination by phagocytes. The binding of the IgV domain of SIRPα to the IgV domain of CD47 can be measured in a simple ELISA assay using recombinant versions of each protein. For this purpose we have employed Fc-fusions of SIRP IgV domain and alkaline phosphatase fusions of the CD47 IgV domain. The Fc-IgV protein is adsorbed to well plates coated with protein A to which the Fc binds. Potential inhibitors are added and the binding of alkaline phosphatase-conjugated CD47 IgV domain is measured by routine procedures.

HASMC [2] = test: Intracellular cGMP in HASMC; type: cell-based, human; conditions: DEA/NO 10 μM, 5 minutes
HASMC [3] = test: HASMC proliferation (MTS); type: cell-based, human; conditions: DETA/NO 10 μM, 72 h
Experimental: Proliferation of vascular cells was measured with a non-radioactive colorimetric assay (CellTiter 96, Promega, Madison, Wis.). Briefly, to each well of a 96-well culture plate (Nunc, Denmark) 5×10^3 cells were suspended in 100 μl of culture medium with indicated treatments and incubated for 72 hours at 37° C. in a 5% CO2 atmosphere. Following incubation 20 μl of tetrazolium compound/solubilization agent was added and incubation continued for 4 hours under the same conditions. The plate was then read on a MR580 Microelisa Auto Reader (Dynatech) at a wavelength of 490 nm. Appropriate zero time controls were run for all assays and the optical density readings obtained then subtracted from those obtained at 72 hours.

[4] = system: murine ASMC (WT, CD36 null, CD47 null); test: Intracellular cGMP in murine ASMC; type: cell-based, mouse
How it was run: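 Aortic smooth muscle cells from wild-type C57Bl/6, CD36-null or CD47-null mice, passage 1–4, plated overnight in full growth medium. Weaned to SM-GM + 0.1% BSA before treatment with NO donor and other agents. Intracellular cGMP measured by enzyme immunoassay.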

HASMC [5] = test: NO-stimulated HASMC adhesion on type I collagen; type: cell-based, human; conditions: DEA/NO 10 μM
Experimental: Cell adhesion was carried out in 96-well culture plates. After pre-coating wells with type I collagen (3 μg/ml in DPBS) harvested cells were plated at a density of 1×10^4 cells/well in medium plus 0.1% BSA and treatment agents and incubated in 5% CO2 for 1 h. Wells were washed with PBS and cells fixed with 1% glutaraldehyde for 10 min., washed and stained with 1% crystal violet for 20 min. Excess stain was rinsed away, adherent cells treated with 10% acetic acid, and plates read at 570 nm.

HUVEC = test: Intracellular cGMP in HUVEC; type: cell-based, human; conditions: DEA/NO 10 μM
Experimental: HUVEC (10^4 cells/well) grown overnight in 96-well culture plates containing full growth medium with 2% FCS and weaned in growth medium without additives and 1% FCS over 24 hrs before treatment with NO donors and other agents in SM-GM without additives+0.1% BSA. Intracellular cGMP levels were determined according to the manufacturer's instructions using an enzyme immunoassay kit (Amersham Biosciences). In other experiments ASMC from wild type and CD36 or CD47 null mice were plated onto 96-well culture plates and incubated overnight in full growth medium. They were then weaned off serum as described to SM-GM+0.1% BSA and treated with NO donor and other agents as indicated. Intracellular cyclic nucleotides were determined via immunoassay.

T1 sequence (Q08722 19-127 limits assumed): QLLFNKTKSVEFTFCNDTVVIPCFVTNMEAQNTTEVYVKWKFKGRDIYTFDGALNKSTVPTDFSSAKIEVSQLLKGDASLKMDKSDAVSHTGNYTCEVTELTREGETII

In the case of `CC[C@H](C)[C@H](N)C(=O)NCC(=O)N[C@@H](Cc1c[nH]c2ccccc12)C(=O)N[C@@H](CCCCN)C(=O)N[C@@H](CC(=O)O)C(=O)N[C@@H](Cc1ccc(O)cc1)C(=O)N[C@H](C(=O)N[C@@H](C)C(=O)N[C@@H](Cc1ccc(O)cc1)C(=O)N[C@@H](CCCNC(=N)N)C(=O)O)[C@@H](C)O` [compound 37298, IGWKDYTAYR] (H-IGWKDYTAYR-OH), the IC50 (NO/cGMP signaling) is reported as about 100 nM and the “inhibition of binding of the SIRP IgV domain to CD47” value [1] is reported as “can inhibit the binding”.
In the case of “CBD: recombinant C-terminal cell-binding domain (G module) of TSP1”, the “NO-stimulated cGMP levels in HASMC” value (HASMC [2]) is reported as “equipotent dose-dependent inhibitors”, the “NO-stimulated HASMC proliferation” value (HASMC [3]) is reported as “inhibited NO-stimulated HASMC proliferation” and the “NO-stimulated cGMP” value ([4]; CD36 null MASMC) is reported as “completely inhibited”. For the same compound, the “NO-stimulated cGMP” value ([4]; CD47 null MASMC) was “did not significantly inhibit” and the “NO-stimulated HASMC adhesion on type I collagen” value (HASMC [5]; 1 h) was “slightly less active but also dose-dependently inhibited”.
In the case of “E3CaG1: recombinant C-terminal regions of TSP1”, the “NO-driven cGMP production” value (HUVEC) is reported as “potently inhibited”, the “NO-stimulated cGMP levels in HASMC” value (HASMC [2]) is reported as “equipotent dose-dependent inhibitors” and the “concentration that inhibited NO-driven HASMC adhesion to collagen” value (HASMC [5]) is reported as over 0.4 nM.
